The conditions of data set [1]: 13-membered ring.
Data set [2] concerns the target T1, CFTR-mediated chloride transport in human intestinal epithelial enteroid cells (Homo sapiens, UniProt P13569). The data set is described as follows: Membrane potential dye, Enteroid Assay A. It is filed as cell-based. As to conditions: for EC50: read-out: Ent. A EC50. Put shortly:
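Membrane potential dye (20 μM methyl oxonol, with 30 μM CaCCinh-A01 and 30 μM Chicago Sky Blue) loaded 25 min at room temperature into ROCK-inhibitor-seeded human enteroid cells. Chloride-free stimulation buffer triggered transport, followed by 15 min fluorescence. % Activity relative to 3 μM/3 μM/300 nM triple-combination control.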

Data set [3] concerns the target T1, CFTR-mediated chloride transport in human intestinal epithelial enteroid cells. The data set is described as follows: Membrane potential dye, Enteroid Assay B. It is filed as cell-based. The following applies: for EC50: read-out: Ent. B EC50. The method, then:
Base medium (ADF+++) consisted of Advanced DMEM/Ham's F12, 2 mM Glutamax, 10 mM HEPES, […] penicillin/streptomycin.
Bath 1 Buffer consisted of 1 mM MgCl2, 160 mM NaCl, 4.5 mM KCl, 10 mM HEPES, 10 mM Glucose, 2 mM CaCl2.
Chloride Free Buffer consisted of 1 mM Magnesium Gluconate, 2 mM Calcium Gluconate, 4.5 mM Potassium Gluconate, 160 mM Sodium Gluconate, 10 mM HEPES, 10 mM Glucose.
Bath1 Dye Solution consisted of Bath 1 Buffer, 0.04% Pluronic F127, 20 μM Methyl Oxonol, 30 μM CaCCinh-A01, 30 μM Chicago Sky Blue.
Chloride Free Dye Solution consisted of Chloride Free Buffer, 0.04% Pluronic F127, 20 μM Methyl Oxonol, 30 μM CaCCinh-A01, 30 μM Chicago Sky Blue.
3. Enteroid Cell Harvesting and Seeding
Cells were recovered in cell recovery solution, collected by centrifugation at 650 rpm for 5 min at 4° C., resuspended in TryPLE and incubated for 5 min at 37° C. Cells were then collected by centrifugation at 650 rpm for 5 min at 4° C. and resuspended in IEMM containing 10 μM ROCK inhibitor (RI).
5. Membrane Potential Dye, Enteroid Assay B
Briefly, cells were washed 5 times in Bath 1 Buffer. Bath 1 Dye Solution was added and the cells were incubated for 25 min at room temperature. Following dye incubation, cells were washed 3 times in Chloride Free Dye Solution. Chloride transport was initiated by addition of Chloride Free Dye Stimulation Solution and the fluorescence signal was read for 15 min.

The mark [4] stands for this setting: enteroid cells incubated with test compound 18-24 hours, acute 10 μM forskolin and 300 nM N-[2,4-bis(1,1-dimethylethyl)-5-hydroxyphenyl]-1,4-dihydro-4-oxoquinoline-3-carboxamide.
[5] abbreviates: percentage of chloride transport of triple combination control (3 μM N-[(6-amino-2-pyridyl)sulfonyl]-6-(3-fluoro-5-isobutoxy-phenyl)-2-[(4S)-2,2,4-trimethylpyrrolidin-1-yl]pyridine-3-carboxamide based).
The mark [6] stands for this setting: percentage of chloride transport of triple combination control (1 μM (14S)-8-[3-(2-{Dispiro[2.0.2.1]heptan-7-yl}ethoxy)-1H-pyrazol-1-yl]-... trione based).

The structures appear in SMILES notation. Where two headings read alike, the source gives them in different places.

The record followed here is patent US20240018161A1, “MODULATORS OF CYSTIC FIBROSIS TRANSMEMBRANE CONDUCTANCE REGULATOR” (VERTEX PHARMACEUTICALS INCORPORATED, priority 2020, published 2024).

T1 sequence (P13569 with tags, fused parts or gaps DEL508-508): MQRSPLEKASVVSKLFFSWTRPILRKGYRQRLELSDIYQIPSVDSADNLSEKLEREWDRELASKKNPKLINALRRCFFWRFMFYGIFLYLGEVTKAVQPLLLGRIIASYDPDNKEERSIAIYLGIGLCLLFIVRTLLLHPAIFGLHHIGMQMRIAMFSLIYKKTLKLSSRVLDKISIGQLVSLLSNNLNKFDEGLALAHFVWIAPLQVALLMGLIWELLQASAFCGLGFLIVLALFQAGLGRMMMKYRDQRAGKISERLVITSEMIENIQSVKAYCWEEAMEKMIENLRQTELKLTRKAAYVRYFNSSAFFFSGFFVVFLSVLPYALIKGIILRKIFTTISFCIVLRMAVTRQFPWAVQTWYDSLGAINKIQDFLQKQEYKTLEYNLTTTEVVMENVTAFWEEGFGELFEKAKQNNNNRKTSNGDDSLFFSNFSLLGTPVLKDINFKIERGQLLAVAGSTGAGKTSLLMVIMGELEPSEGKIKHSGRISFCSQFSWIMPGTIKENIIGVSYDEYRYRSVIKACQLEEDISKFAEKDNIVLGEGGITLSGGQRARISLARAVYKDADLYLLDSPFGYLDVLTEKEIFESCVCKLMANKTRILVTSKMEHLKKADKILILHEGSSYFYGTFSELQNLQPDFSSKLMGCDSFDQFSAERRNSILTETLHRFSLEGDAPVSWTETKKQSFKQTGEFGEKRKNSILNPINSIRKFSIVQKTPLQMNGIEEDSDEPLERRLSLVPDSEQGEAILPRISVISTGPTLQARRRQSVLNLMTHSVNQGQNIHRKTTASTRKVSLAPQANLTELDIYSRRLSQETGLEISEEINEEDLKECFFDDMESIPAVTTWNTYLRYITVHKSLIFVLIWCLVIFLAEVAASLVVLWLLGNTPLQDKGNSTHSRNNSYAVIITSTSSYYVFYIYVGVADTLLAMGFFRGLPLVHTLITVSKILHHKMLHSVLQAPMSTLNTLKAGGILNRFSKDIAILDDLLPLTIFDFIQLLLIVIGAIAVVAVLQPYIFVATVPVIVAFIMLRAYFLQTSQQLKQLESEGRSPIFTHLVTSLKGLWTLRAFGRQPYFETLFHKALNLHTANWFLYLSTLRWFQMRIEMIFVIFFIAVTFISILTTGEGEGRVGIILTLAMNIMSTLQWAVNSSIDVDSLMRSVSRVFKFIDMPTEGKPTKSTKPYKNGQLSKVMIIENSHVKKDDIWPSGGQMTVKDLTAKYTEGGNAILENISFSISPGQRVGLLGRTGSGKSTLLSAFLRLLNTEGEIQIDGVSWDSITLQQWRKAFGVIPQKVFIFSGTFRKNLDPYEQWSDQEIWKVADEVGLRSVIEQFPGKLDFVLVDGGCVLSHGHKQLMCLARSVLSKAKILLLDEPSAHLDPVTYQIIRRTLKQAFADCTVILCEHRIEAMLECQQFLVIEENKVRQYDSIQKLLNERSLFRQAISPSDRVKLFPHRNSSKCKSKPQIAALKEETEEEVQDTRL

With `Cc1cccc(C)c1-c1cc2nc(n1)NS(=O)(=O)c1cccc(c1)C(=O)N1C(c3cncc(N(C)C4CCC4)n3)CC[C@H](O2)[C@H]1CC(C)C` (some centres unmarked), the ring closure, yield after HPLC in data set [1] (from Cc1cccc(C)c1-c1cc(Cl)nc(NS(=O)(=O)c2cccc(C(=O)N3C(c4cncc(N(C)C5CCC5)n4)CC[C@H](O)[C@H]3CC(C)C)c2)n1, snar bond, NaH, DMF, 21.5 mM, 24.0 h) turned out to be 4%; in data set [1] (from Cc1cccc(C)c1-c1cc(O[C@H]2CCC(c3cncc(N(C)C4CCC4)n3)N[C@@H]2CC(C)C)nc(NS(=O)(=O)c2cccc(C(=O)O)c2)n1, amide bond, CDMT/NMM, DMF, 16.6 mM, 48.0 h, 2 steps), 31.6%.

Consider `Cc1cccc(C)c1-c1cc2nc(n1)NS(=O)(=O)c1cccc(c1)C(=O)N1CC(CCC1c1ccccc1)O2` (centres unmarked), for which the ring closure, yield after HPLC was determined as 37% in data set [1] (from Cc1cccc(C)c1-c1cc(OC2CCC(c3ccccc3)NC2)nc(NS(=O)(=O)c2cccc(C(=O)O)c2)n1, amide bond, HATU/DIEA, DMF, 156.0 mM, 25.0 °C, 0.083 h, 3 steps) and 7% in data set [1] (from Cc1cccc(C)c1-c1cc(OC2CCC(c3ccccc3)NC2)nc(NS(=O)(=O)c2cccc(C(=O)Oc3c(F)c(F)c(F)c(F)c3F)c2)n1, amide bond, thermal (OPfp ester), NMP, 36.0 mM, 130.0 °C, 1.0 h, 4 steps).

`Cc1cccc(C)c1-c1cc2nc(n1)NS(=O)(=O)c1cccc(c1)C(=O)N1CC(O2)C2CCCN(C)C2C1` (centres unmarked) displayed a ring closure, yield after HPLC in data set [1] (from Cc1cccc(C)c1-c1cc(OC2CNCC3C2CCCN3C)nc(NS(=O)(=O)c2cccc(C(=O)O)c2)n1, amide bond, HATU/DIEA, DMF, 27.2 mM, 25.0 °C, 0.67 h) of 10%.

On to `Cc1cccc(C)c1-c1cc2nc(n1)NS(=O)(=O)c1cccc(c1)C(=O)N1CC(O2)c2ccccc2C1CC(C)C` (centres unmarked), for which the ring closure, yield after HPLC in data set [1] (from Cc1cccc(C)c1-c1cc(OC2CNC(CC(C)C)c3ccccc32)nc(NS(=O)(=O)c2cccc(C(=O)O)c2)n1, amide bond, HATU/DIEA, DMF, 256.0 mM, 1.0 h) was determined as 8%.

Regarding `Cc1cccc(C)c1-c1cc2nc(n1)NS(=O)(=O)c1cccc(c1)C(=O)N1CC3CCCN(C)C3C(C1)O2` (centres unmarked), the ring closure, yield after HPLC in data set [1] (from 3-[[4-(2,6-dimethylphenyl)-6-[(1-methyl-3,4,4a,5,6,7,8,8a-octahydro-2H-1,6-naphthyridin-8-yl)oxy]pyrimidin-2-yl]sulfamoyl]benzoic acid (Dihydrochloride salt), amide bond, HATU/DIEA, 25.0 °C) came out at 19%.

With `Cc1cccc(C)c1-c1cc2nc(n1)NS(=O)(=O)c1cccc(c1)C(=O)N1CCCC(O2)C1CC(C)C` (centres unmarked), the ring closure, yield after HPLC was 17% in data set [1] (from Cc1cccc(C)c1-c1cc(Cl)nc(NS(=O)(=O)c2cccc(C(=O)N3CCCC(O)C3CC(C)C)c2)n1, snar bond, NaH, DMF, 17.2 mM, 25.0 °C, 40.0 h) and 24% in data set [1] (from Cc1cccc(C)c1-c1cc(Cl)nc(NS(=O)(=O)c2cccc(C(=O)N3CCCC(O)C3CC(C)C)c2)n1, snar bond, NaH, DMF, 18.3 mM, 25.0 °C, 24.0 h).

`Cc1cccc(C)c1-c1cc2nc(n1)NS(=O)(=O)c1cccc(c1)C(=O)N1CCOC[C@@H]1C(Cc1ccccc1)O2` (some centres unmarked) showed a ring closure, yield after HPLC in data set [1] (from Cc1cccc(C)c1-c1cc(OC(Cc2ccccc2)[C@H]2COCCN2)nc(NS(=O)(=O)c2cccc(C(=O)O)c2)n1, amide bond, HATU/DIEA, DMF, 61.0 mM, 25.0 °C, 1.5 h) of 74%.

Take `Cc1cccc(C)c1-c1cc2nc(n1)NS(=O)(=O)c1cccc(c1)C(=O)N1Cc3ccncc3C(C1)O2` (centres unmarked): in data set [1] (from Cc1cccc(C)c1-c1cc(OC2CNCc3ccncc32)nc(NS(=O)(=O)c2cccc(C(=O)O)c2)n1, amide bond, HATU/DIEA, DMF, 23.5 mM, 0.5 h, 2 steps), the ring closure, yield after HPLC worked out at 3%.

A word on the EC50: it is the concentration at which the effect is half-maximal. `Cc1cccc(C)c1-c1cc2nc(n1)NS(=N)(=O)c1cccc(c1)C(=O)N1CCN(CCC(C)(C)C)C[C@H](C1)O2` (single isomer, unassigned) [Compound 245, 18-(3,3-dimethylbutyl)-12-(2,6-dimethylphenyl)-8-imino-15-oxa-8λ^6-thia-1,9,11,18,22-pentaazatetracyclo[14.4.1.13,7.110,14]tricosa-3,5,7(23),10,12,14(22)-hexaene-2,8-dione]: in data set [2] (Enteroid Assay A), the “Ent. A Max Activity (%)” value is “++ (++ is 30-60%)” and the 50% effective concentration (EC50) is under 1 µM. Moreover, in data set [3] (Enteroid Assay B), the “Ent. B Max Activity (%)” value is reported as “+++ (+++ is >600%)” and the EC50 is under 1 µM.

Consider `Cc1cccc(C)c1-c1cc2nc(n1)NS(=O)(=O)c1cccc(c1)C(=O)N1Cc3cc(C(C)(C)C)ccc3C(O2)[C@H]1CC(C)(C)C` (stereo in doubt) [Compound 188, (16S,24R)-20-tert-Butyl-12-(2,6-dimethylphenyl)-24-(2,2-dimethylpropyl)-15-oxa-8λ^6-thia-1,9,11,25-tetraazapentacyclo[14.7.1.13,7.110,14.017,22]hexacosa-3(26),4,6,10(25),11,13,17,19,21-nonaene-2,8,8-trione], for which, in data set [2] (Enteroid Assay A), the “Ent. A Max Activity (%)” value is given as “+++ (+++ is >600%)” and the EC50 was under 1 µM. Moreover, in data set [3] (Enteroid Assay B), the “Ent. B Max Activity (%)” value is on record as “+++ (+++ is >600%)” and the concentration for a half-maximal effect (EC50) is under 1 µM.

On to `Cc1cccc(C)c1-c1cc2nc(n1)NS(=O)(=O)c1cccc(c1)C(=O)N1Cc3ccccc3[C@H](C1)O2` (stereo in doubt) [Compound 319], for which the concentration for a half-maximal effect (EC50) in data set [2] (setting [4]) and in data set [3] (setting [4]) was under 1 µM throughout. In addition, in data set [2] (setting [5]), the “Ent. A Max Activity (%)” value was “+++ (+++ is >60%)”. The “Ent. B Max Activity (%)” value in data set [3] (setting [6]) was “+++ (+++ is >60%)”.

As to `Cc1cccc(C)c1-c1cc2nc(n1)NS(=O)(=O)c1cccc(c1)C(=O)N1CCN(CCC(C)(C)C)C[C@H](C1)O2` [Compound 1, (16R)-18-(3,3-Dimethylbutyl)-12-(2,6-dimethylphenyl)-15-oxa-8λ^6-thia-1,9,11,18,22-pentaazatetracyclo[14.4.1.13,7.110,14]tricosa-3,5,7(23),10,12,14(22)-hexaene-2,8,8-trione], the 50% effective concentration (EC50) in data set [2] (setting [4]) and in data set [3] (setting [4]) was under 1 µM in each case. For the same compound, the “Ent. A Max Activity (%)” value in data set [2] (setting [5]) is recorded as “+++ (+++ is >60%)”. In data set [3] (setting [6]), the “Ent. B Max Activity (%)” value is given as “+++ (+++ is >60%)”.

Regarding `Cc1cccc(C)c1-c1cc2nc(n1)NS(=N)(=O)c1cccc(c1)C(=O)N1CCN(C(=O)OC(C)(C)C)CC(C1)O2` (centres unmarked) [Compound 239, tert-Butyl 12-(2,6-dimethylphenyl)-8-imino-2,8-dioxo-15-oxa-8λ^6-thia-1,9,11,18,22-pentaazatetracyclo[14.4.1.13,7.110,14]tricosa-3,5,7(23),10,12,14(22)-hexaene-18-carboxylate], in data set [2] (Enteroid Assay A), the “Ent. A Max Activity (%)” value was “+++ (+++ is >600%)” and the 50% effective concentration (EC50) was 1 to 3 µM. Further, in data set [3] (Enteroid Assay B), the “Ent. B Max Activity (%)” value is on record as “+++ (+++ is >600%)” and the EC50 was 1 to 3 µM.

In the case of `Cc1cccc(C)c1-c1cc2nc(n1)NS(=N)(=O)c1cccc(c1)C(=O)N1CCN(CCC(C)(C)C)CC(C1)O2` (centres unmarked) [Compound 243, 18-(3,3-Dimethylbutyl)-12-(2,6-dimethylphenyl)-8-imino-15-oxa-8λ^6-thia-1,9,11,18,22-pentaazatetracyclo[14.4.1.13,7.110,14]tricosa-3,5,7(23),10,12,14(22)-hexaene-2,8-dione], in data set [2] (Enteroid Assay A), the “Ent. A Max Activity (%)” value is “+++ (+++ is >600%)” and the half-maximal effective concentration (EC50) was under 1 µM. In data set [3] (Enteroid Assay B), the “Ent. B Max Activity (%)” value is “+++ (+++ is >600%)” and the EC50 was under 1 µM.

Regarding `Cc1cccc(C)c1-c1cc2nc(n1)NS(=N)(=O)c1cccc(c1)C(=O)N1CCN(Cc3ccccc3)CC(C1)O2` (centres unmarked) [Compound 248], in data set [2] (Enteroid Assay A), the “Ent. A Max Activity (%)” value was “++ (++ is 30-60%)” and the EC50 lay within 1 to 3 µM. In addition, in data set [3] (Enteroid Assay B), the “Ent. B Max Activity (%)” value is reported as “+++ (+++ is >600%)” and the EC50 was under 1 µM.

Turning to `Cc1cccc(C)c1-c1cc2nc(n1)NS(=O)(=O)c1cccc(c1)C(=O)N1CCN(CCC(C)(C)C)C[C@@H]1CO2` [Compound 298], the EC50 in data set [2] (setting [4]) and in data set [3] (setting [4]) was under 1 µM in each case. Further, the “Ent. A Max Activity (%)” value in data set [2] (setting [5]) is reported as “+++ (+++ is >60%)”. Besides, in data set [3] (setting [6]), the “Ent. B Max Activity (%)” value is reported as “+++ (+++ is >60%)”.

`Cc1cccc(C)c1-c1cc2nc(n1)NS(=O)(=O)c1cncc(c1)C(=O)N1Cc3cc(C(C)(C)C)ccc3[C@H](O2)[C@H]1CC(C)C` [Compound 331]: in data set [2] (Enteroid Assay A), the “Ent. A Max Activity (%)” value is “+++ (+++ is >600%)” and the half-maximal effective concentration (EC50) is under 1 µM. For the same compound, in data set [3] (Enteroid Assay B), the “Ent. B Max Activity (%)” value is “+++ (+++ is >600%)” and the 50% effective concentration (EC50) was under 1 µM.
